Assay results reported in patent US20250034151A1, “WEE1 INHIBITOR, PREPARATION THEREFOR, AND USE THEREOF” (JIANGSU TASLY DIYI PHARMACEUTICAL CO., LTD., priority 2022, published 2025).

Molecular target: T1, CYP2B6 (Homo sapiens, UniProt P20813)
T1 sequence (P20813 1-491): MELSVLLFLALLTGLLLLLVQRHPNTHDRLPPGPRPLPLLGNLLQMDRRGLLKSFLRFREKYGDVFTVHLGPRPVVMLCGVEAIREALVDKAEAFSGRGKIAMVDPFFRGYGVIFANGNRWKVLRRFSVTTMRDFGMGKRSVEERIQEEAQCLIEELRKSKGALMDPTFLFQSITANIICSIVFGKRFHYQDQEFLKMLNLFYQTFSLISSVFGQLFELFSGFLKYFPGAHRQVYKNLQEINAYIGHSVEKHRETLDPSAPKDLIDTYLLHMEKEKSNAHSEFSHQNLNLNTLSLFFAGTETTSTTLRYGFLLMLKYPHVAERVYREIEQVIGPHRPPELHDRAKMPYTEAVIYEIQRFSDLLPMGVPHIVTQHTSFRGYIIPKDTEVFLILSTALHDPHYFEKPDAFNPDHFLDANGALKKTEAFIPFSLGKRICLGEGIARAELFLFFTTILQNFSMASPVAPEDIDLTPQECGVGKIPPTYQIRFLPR
Assay: CYP450 isoform enzymatic inhibition, 2B6
Assay type: in vitro ADME
Conditions: pH 7.4, read-out: CYP inhibiton/% 2B6
Method: Enzymatic experiments were performed to quantify the inhibition of CYP450 enzyme activity of each isoform of CYP450 by small molecule inhibitors through fluorescence generated by the oxidation of the The substrate by cytochrome P450. […] The Solution B composition used for the experiment was: 40 U/mL G6PDH (Sigma-aldrich, Cat #G6378). The The substrate mix was 0.05×Solution A, 0.01×Solution B, 50 mM Potassium Phosphate, 0.01 mM BOMCC/0.01 mM EOMCC/0.001 mM DBOMF.

SMILES: C=CCn1c(=O)c2cnc(Nc3ccc(N4C[C@@H]5C[C@H]4CN5C)cc3)nc2n1-c1cccc(C(C)(C)O)n1 [Compound 3]
- inhibition at 30 min, 10 µM: 1.38%
